For assay [1], the target named is T1, [MCL-1]-[compound of formula (I)]-[CRBN/DDB1] complex (Homo sapiens, UniProt Q07820+Q96SW2). As to the kind of experiment: AlphaLISA dose response ternary complex formation assay. To be noted: read-out: AlphaLISA dose response Average pEC50 by molecule (converted). It counts as binding. In outline: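 EC50 comes from dose–response of AlphaLISA luminescence (excitation 680, emission 615 nm), normalised between DMSO background and an internal positive control, with concentrations past the hook point dropped. Ternary complex formed by mixing bead-bound biotin-hMCL-1 and His-CRBN/DDB1 (protein solutions 40 and 200 nM) with compound in 2% DMSO, 30 min, 25 °C.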
T1 sequence (Q07820 whole entry): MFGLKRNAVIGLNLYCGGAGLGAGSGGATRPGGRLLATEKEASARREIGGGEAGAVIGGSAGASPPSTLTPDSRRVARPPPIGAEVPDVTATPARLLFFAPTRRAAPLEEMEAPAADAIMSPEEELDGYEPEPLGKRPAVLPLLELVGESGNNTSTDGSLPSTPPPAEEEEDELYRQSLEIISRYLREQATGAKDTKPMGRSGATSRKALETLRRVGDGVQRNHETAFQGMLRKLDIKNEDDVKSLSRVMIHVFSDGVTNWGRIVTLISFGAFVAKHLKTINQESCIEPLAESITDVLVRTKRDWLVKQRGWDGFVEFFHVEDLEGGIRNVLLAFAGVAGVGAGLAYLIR
T1 sequence (Q96SW2 whole entry): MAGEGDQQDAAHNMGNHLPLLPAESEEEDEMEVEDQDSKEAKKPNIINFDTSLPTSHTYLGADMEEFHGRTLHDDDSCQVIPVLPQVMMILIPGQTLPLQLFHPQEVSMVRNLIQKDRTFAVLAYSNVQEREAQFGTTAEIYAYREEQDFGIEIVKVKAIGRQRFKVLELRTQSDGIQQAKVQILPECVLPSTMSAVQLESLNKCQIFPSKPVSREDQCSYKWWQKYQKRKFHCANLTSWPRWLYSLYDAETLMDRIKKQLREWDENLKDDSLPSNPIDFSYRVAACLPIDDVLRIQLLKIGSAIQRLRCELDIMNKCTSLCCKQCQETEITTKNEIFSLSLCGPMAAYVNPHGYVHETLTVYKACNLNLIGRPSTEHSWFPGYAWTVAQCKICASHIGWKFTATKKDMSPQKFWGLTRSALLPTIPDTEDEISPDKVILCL
T1 sequence (Q16531 whole entry partner): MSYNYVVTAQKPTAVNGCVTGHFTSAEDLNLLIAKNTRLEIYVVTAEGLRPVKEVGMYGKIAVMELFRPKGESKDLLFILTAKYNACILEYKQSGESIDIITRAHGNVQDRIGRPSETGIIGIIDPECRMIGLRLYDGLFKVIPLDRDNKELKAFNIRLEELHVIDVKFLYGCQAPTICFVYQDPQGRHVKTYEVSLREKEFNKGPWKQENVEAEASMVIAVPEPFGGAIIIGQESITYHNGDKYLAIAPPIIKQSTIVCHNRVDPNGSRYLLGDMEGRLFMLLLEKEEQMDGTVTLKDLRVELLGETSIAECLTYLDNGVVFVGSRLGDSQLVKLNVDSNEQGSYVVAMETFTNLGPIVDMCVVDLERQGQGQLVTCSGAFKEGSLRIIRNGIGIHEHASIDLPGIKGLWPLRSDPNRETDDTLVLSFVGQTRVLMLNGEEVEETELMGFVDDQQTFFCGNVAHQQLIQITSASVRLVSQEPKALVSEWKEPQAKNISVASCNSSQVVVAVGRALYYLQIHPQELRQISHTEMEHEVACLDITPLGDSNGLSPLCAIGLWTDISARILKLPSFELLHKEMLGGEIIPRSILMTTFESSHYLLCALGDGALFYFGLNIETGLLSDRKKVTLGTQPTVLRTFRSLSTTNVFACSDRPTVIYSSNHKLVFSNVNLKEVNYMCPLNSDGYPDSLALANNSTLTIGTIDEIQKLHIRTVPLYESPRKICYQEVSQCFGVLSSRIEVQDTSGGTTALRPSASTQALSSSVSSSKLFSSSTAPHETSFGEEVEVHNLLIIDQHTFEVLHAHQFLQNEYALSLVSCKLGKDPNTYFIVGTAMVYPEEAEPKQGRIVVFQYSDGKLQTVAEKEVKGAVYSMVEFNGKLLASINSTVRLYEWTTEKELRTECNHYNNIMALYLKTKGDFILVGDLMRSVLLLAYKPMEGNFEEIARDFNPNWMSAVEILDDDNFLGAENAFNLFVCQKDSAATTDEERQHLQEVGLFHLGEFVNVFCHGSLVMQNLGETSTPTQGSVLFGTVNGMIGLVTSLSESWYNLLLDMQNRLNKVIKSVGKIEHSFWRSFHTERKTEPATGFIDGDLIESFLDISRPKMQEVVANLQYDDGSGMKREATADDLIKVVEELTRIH
In general terms: In Alpha technology, singlet oxygen from a donor bead excites a nearby acceptor bead.

Another assay has as its system ARH-77 cells. As to the kind of experiment: Cell viability assay (CellTiter-Glo), ARH-77. It counts as cell-based. To be noted: Homo sapiens, ARH-77, 24 hours incubation, 1% FBS, read-out: Average pIC50 by molecule ARH-77 (converted). An outline of the steps: (§1)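 OPM-2, MV-4-11 and ARH-77 cells were grown in medium with 1% FBS and treated with compound in 1/3 dilutions from 30 uM (9–12 points, 0.5% DMSO). Viability was read by CellTiter-Glo luminescence after 24 hours and normalized to DMSO control.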

The next assay concerns OPM-2 cells. As to the kind of experiment: Cell viability assay (CellTiter-Glo), OPM-2. The note with it: Homo sapiens, 24 hours incubation, 1% FBS, read-out: Average pIC50 by molecule OPM-2 (converted). It counts as cell-based. The text has this:
The effect of various compounds of the invention on the viability of OPM-2, MV-4-11 and ARH-77 cell lines was investigated, using the CTG protocol described below.
OPM-2 and MV-4-11 cell lines are derived from multiple myeloma and acute myeloid leukaemia, respectively. Both cell lines are described in the literature as MCL-1 dependent lines, as opposed to lymphoblast-like ARH-77 cell line, which is described as independent of MCL-1 (Tron A E et al. Nat Commun. 2018; 9: 5341; Caenepeel S et al. Cancer Discov. 2018 December; 8(12):1582-1597).
Cells (OPM-2, MV-4-11 or ARH-77) were seeded on […] in a growth medium with FBS reduced to 1%. Next, compound stocks were pre-diluted in DMSO and added directly to the cells growth medium (final DMSO concentration: 0.5%). Compound concentrations used in this assay: 1/3 dilutions starting at 30 uM (9 to 12 points).
After 24 hours of incubation, cell viability was evaluated using CellTiter-Glo Luminescent Cell Viability Assay (Promega, cat #G7572). Luminescence signal was measured using a CLARIOstar Plus Multi-Mode Microplate Reader (574-590 nm).
Results were normalized to DMSO control.
Background: In ATP-based viability assays light output follows the ATP content of the culture.

The test system of the next assay is MV-4-11 cells. Nature of the assay: Cell viability assay (CellTiter-Glo), MV-4-11. The format is cell-based. The note with it: Homo sapiens, MV4-11, 24 hours incubation, 1% FBS, read-out: Average pIC50 by molecule MV-4-11 (converted). An outline of the steps: as §1
A further assay concerns DMS 114 cells. As to the kind of experiment: Cell viability assay (CellTiter-Glo), DMS 114. The format is cell-based. The note with it: Homo sapiens, DMS-114, 72 h, 72 hours incubation, 10% FBS, read-out: Average pIC50 by molecule DMS 114 (converted). From the text:
The effect of various compounds of the invention on the viability of DMS 114 cell line was investigated, using the CTG protocol described below.
DMS 114 cell line is derived from small-cell lung cancer, which is described in the literature as MCL-1 dependent lines [Yasuda Y et al. Cell Death & Disease 2020; 11: 177].
DMS 114 cells were detached with trypsin and then resuspended in growth medium containing 10% FBS and counted. Cell suspension was then adjusted to 5×10^4 cells/ml using growth medium containing 10% FBS. Afterwards, […] were seeded on 384-well plates (50 μl). Plates were then placed in the incubator overnight until treated. Next day, compounds were added using ECHO 555 liquid handler. Compound concentrations used in this assay: 1/3 dilutions starting at 30 uM (9 to 12 points).
After 72 hours of incubation, cell viability was evaluated using CellTiter-Glo Luminescent Cell Viability Assay (Promega, cat #G7572). Luminescence signal was measured using a CLARIOstar Plus Multi-Mode Microplate Reader (574-590 nm).

In assay [2] the target is T1, [MCL-1]-[compound of formula (I)]-[CRBN/DDB1] complex. As to the kind of experiment: HTRF ternary complex assay. It counts as binding. To be noted: ternary complex formation; read-out: HTRF ternary complex Average pEC50 by molecule (converted). In outline:
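hMcl-1 and CRBN (mix at 48 nM and 105.6 nM) with Streptavidin-Eu cryptate and anti-6×His-d2 in PPI Europium buffer with 2 mM DTT; compounds in dose-response, 0.5% DMSO. Incubated 180 min at 25° C, TR-FRET 665/620 read. Bell-shaped curve fitted by Gaussian; EC50 reported.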
For orientation: Time-resolved FRET reads energy transfer from a long-lived donor to a nearby acceptor.

Take `Cc1nn(C)c(C)c1-c1c(Cl)ccc2c(CCCOc3cccc4ccccc34)c(C(=O)O)n(CCN3CCN(C(=O)CNc4cccc5c4C(=O)N(C4CCC(=O)NC4=O)C5=O)CC3)c12` (stereo not shown) [Compound 207, 6-chloro-1-{2-[4-(2-{[2-(2,6-dioxopiperidin-3-yl)-1,3-dioxo-2,3-dihydro-1H-isoindol-4-yl]amino}acetyl)piperazin-1-yl]ethyl}-3-[3-(naphthalen-1-yloxy)propyl]-7-(1,3,5-trimethyl-1H-pyrazol-4-yl)-1H-indole-2-carboxylic acid]: in assay [1], the EC50 is under 100 nM. In addition, the IC50 is over 10000 nM with ARH-77 cells, at most 1000 nM with OPM-2 cells and at most 316 nM in the assay with MV-4-11 cells.
The matching figures for `Cc1nn(C)c(C)c1-c1c(Cl)ccc2c(CCCOc3cccc4ccccc34)c(C(=O)O)n(CCN3CCN(C(=O)COc4cccc5c4C(=O)N(C4CCC(=O)NC4=O)C5=O)CC34CC4)c12` (stereo not shown) [Compound 210, 6-chloro-1-(2-(7-(2-((2-(2,6-dioxopiperidin-3-yl)-1,3-dioxoisoindolin-4-yl)oxy)acetyl)-4,7-diazaspiro[2.5]octan-4-yl)ethyl)-3-(3-(naphthalen-1-yloxy)propyl)-7-(1,3,5-trimethyl-1H-pyrazol-4-yl)-1H-indole-2-carboxylic acid]: under 100 nM, over 10000 nM, at most 1000 nM and at most 100 nM.
For `Cc1nn(C)c(C)c1-c1c(Cl)ccc2c(CCCOc3cccc4ccccc34)c(C(=O)O)n(CCN3C[C@@H]4CN(C(=O)COc5cccc6c5C(=O)N(C5CCC(=O)NC5=O)C6=O)C[C@@H]4C3)c12` (stereo partly drawn) [Compound 211, 6-chloro-1-(2-((3aR,6aS)-5-(2-((2-(2,6-dioxopiperidin-3-yl)-1,3-dioxoisoindolin-4-yl)oxy)acetyl)hexahydropyrrolo[3,4-c]pyrrol-2(1H)-yl)ethyl)-3-(3-(naphthalen-1-yloxy)propyl)-7-(1,3,5-trimethyl-1H-pyrazol-4-yl)-1H-indole-2-carboxylic acid], in that order: under 100 nM, over 10000 nM, at most 3160 nM and at most 316 nM.
Take `Cc1nn(C)c(C)c1-c1c(Cl)ccc2c(CCCOc3cccc4c3CCCC4)c(C(=O)O)n(CCN3CCN(C(=O)COc4cccc5c4C(=O)N(C4CCC(=O)NC4=O)C5=O)CC3)c12` (stereo not shown) [Compound 216, 6-chloro-1-{2-[4-(2-{[2-(2,6-dioxopiperidin-3-yl)-1,3-dioxo-2,3-dihydro-1H-isoindol-4-yl]oxy}acetyl)piperazin-1-yl]ethyl}-3-[3-(5,6,7,8-tetrahydronaphthalen-1-yloxy)propyl]-7-(1,3,5-trimethyl-1H-pyrazol-4-yl)-1H-indole-2-carboxylic acid]: the EC50 in assay [1] and in assay [2] was under 10 nM each time. In addition, the IC50 was over 10000 nM with ARH-77 cells, at most 100 nM in the assay with OPM-2 cells, at most 100 nM with MV-4-11 cells and at most 3160 nM in the assay with DMS 114 cells.
Regarding `Cc1nn(C)c(C)c1-c1c(Cl)ccc2c(CCCOc3cccc4cc(F)ccc34)c(C(=O)O)n(CCN3CCN(C(=O)Cn4c(C)nc5c(C(=O)NC6CCC(=O)NC6=O)ccc(Br)c54)CC3)c12` (stereo not shown) [Compound 269, 1-(2-(4-(2-(7-Bromo-4-((2,6-dioxopiperidin-3-yl)carbamoyl)-2-methyl-1H-benzo[d]imidazol-1-yl)acetyl)piperazin-1-yl)ethyl)-6-chloro-3-(3-((6-fluoronaphthalen-1-yl)oxy)propyl)-7-(1,3,5-trimethyl-1H-pyrazol-4-yl)-1H-indole-2-carboxylic acid], the EC50 in assay [1] was under 100 nM; in assay [2], under 10 nM. The IC50 in the assay on ARH-77 cells was over 10000 nM; in the assay on MV-4-11 cells it was at most 100 nM; with DMS 114 cells, at most 3160 nM.
Consider `Cc1nn(C)c(C)c1-c1c(Cl)ccc2c(CCCOc3cccc4cc(F)ccc34)c(C(=O)O)n(CCN3CCN(C4CCN(c5cc6c(cc5F)C(=O)N(C5CCC(=O)NC5=O)C6=O)CC4)CC3)c12` (stereo not shown) [Compound 338, 6-Chloro-1-[2-(4-{1-[2-(2,6-dioxopiperidin-3-yl)-6-fluoro-1,3-dioxo-2,3-dihydro-1H-isoindol-5-yl]piperidin-4-yl}piperazin-1-yl)ethyl]-3-{3-[(6-fluoronaphthalen-1-yl)oxy]propyl}-7-(1,3,5-trimethyl-1H-pyrazol-4-yl)-1H-indole-2-carboxylic acid], for which the IC50 was over 10000 nM with ARH-77 cells, at most 31.6 nM in the assay on MV-4-11 cells and at most 10000 nM in the assay with DMS 114 cells. The EC50 in assay [2] was under 10 nM.
With `COCc1c(-c2c(Cl)ccc3c(CCCOc4cccc5cc(F)ccc45)c(C(=O)O)n(CCN4CCN(C(=O)COc5cccc6c5CN(C5CCC(=O)NC5=O)C6=O)CC4)c23)c(C)nn1C` (stereo not shown) [Compound 349, 6-Chloro-1-(2-(4-(2-((2-(2,6-dioxopiperidin-3-yl)-1-oxoisoindolin-4-yl)oxy)acetyl)piperazin-1-yl)ethyl)-3-(3-((6-fluoronaphthalen-1-yl)oxy)propyl)-7-(5-(methoxymethyl)-1,3-dimethyl-1H-pyrazol-4-yl)-1H-indole-2-carboxylic acid], the IC50 in the assay with ARH-77 cells is over 10000 nM; in the assay on MV-4-11 cells, at most 31.6 nM; in the assay with DMS 114 cells it was at most 1000 nM. Also, in assay [2], the EC50 is under 100 nM.

Values taken from patent US20240294499A1, “TARGETED PROTEIN DEGRADATION USING BIFUNCTIONAL COMPOUNDS THAT BIND UBIQUITIN LIGASE AND TARGET MCL-1 PROTEIN” (Captor Therapeutics S.A., priority 2021, published 2024).
